In PubChem BioAssay AID330 (DTP/NCI, 2004):
“And” between values parts separate entries of the source, which are not always exact repeats. Equal values may be shown once. Inconclusive results and toxic doses are left out. Rule for the calls: active = survival T/C of 150% or more; inactive = T/C below 125% in these data. Peptide text beside a SMILES is read from it. * marks the point of attachment. Boc = CC(C)(C)OC(=O)*; NHNH2 = NN*

Tested on: P388 leukemia ip, CD2F1 mice, survival T/C
Test: NCI In Vivo Anticancer Drug Screen. Data for tumor model P388 Leukemia (intraperitoneal) in CD2F1 (CDF1) mice
Conditions: endpoint: median survival time, higher = longer survival
Procedure, shortened: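 Mice carrying the transplanted tumor received test compound or vehicle. Survival was recorded in each group, and the value is the treated-group measurement divided by that of the vehicle-treated control group.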

[1] = dose: 50.0 mg/kg/injection, schedule: Q01DX009 (ip), vehicle: Klucel (hydroxypropylcellulose) (HPC)
[2] = dose: 100.0 mg/kg/injection, schedule: Q01DX009 (ip), vehicle: Klucel (hydroxypropylcellulose) (HPC)
[3] = dose: 60.0 mg/kg/injection, schedule: Q01DX005 (ip), vehicle: saline with Tween-80
[4] = dose: 120.0 mg/kg/injection, schedule: Q01DX005 (ip), vehicle: saline with Tween-80
[5] = dose: 240.0 mg/kg/injection, schedule: Q01DX005 (ip), vehicle: saline with Tween-80
[6] = dose: 50.0 mg/kg/injection, schedule: Q01DX005 (ip), vehicle: Klucel (hydroxypropylcellulose) (HPC)
[7] = dose: 100.0 mg/kg/injection, schedule: Q01DX005 (ip), vehicle: Klucel (hydroxypropylcellulose) (HPC)
[8] = dose: 200.0 mg/kg/injection, schedule: Q01DX005 (ip), vehicle: Klucel (hydroxypropylcellulose) (HPC)
[9] = dose: 50.0 mg/kg/injection, schedule: Q01DX005 (ip), vehicle: saline with Tween-80
[10] = dose: 100.0 mg/kg/injection, schedule: Q01DX005 (ip), vehicle: saline with Tween-80
[11] = dose: 200.0 mg/kg/injection, schedule: Q01DX005 (ip), vehicle: saline with Tween-80
[12] = dose: 200.0 mg/kg/injection, schedule: Q01DX009 (ip), vehicle: Klucel (hydroxypropylcellulose) (HPC)

Measured: T/C

O=S1(=O)O[C@H]2CCCC[C@H]2O1
inactive: dose: 1.75 mg/kg/injection, schedule: Q01DX009 (ip), vehicle: Klucel (hydroxypropylcellulose) (HPC) 100 % of control | dose: 3.5 mg/kg/injection, schedule: Q01DX009 (ip), vehicle: Klucel (hydroxypropylcellulose) (HPC) 98 % of control | dose: 7.0 mg/kg/injection, schedule: Q01DX009 (ip), vehicle: Klucel (hydroxypropylcellulose) (HPC) 101 % of control | dose: 14.0 mg/kg/injection, schedule: Q01DX009 (ip), vehicle: Klucel (hydroxypropylcellulose) (HPC) 98 % of control

O=C(CC(Sc1ccccc1)c1cccc([N+](=O)[O-])c1)c1ccccc1 (configuration not stated)
inactive: [1] 93 % of control | [2] 95 % of control

COc1ccc2c(c1)CCC1OC(c3cccnc3)OC21 (configuration not stated)
inactive: [3] 99 % of control | [4] 99 % of control | [5] 97 % of control

c1ccc(/C2=N\OCCCOc3ccccc32)cc1
inactive: [6] 88 % of control | [7] 87 % of control | [8] 87 % of control

CCC(C)C(NC(=O)C(Cc1c[nH]c2ccccc12)NC(=O)OC(C)(C)C)C(=O)NN (stereo not drawn) (Boc-Trp-Ile-NHNH2; configuration not given here)
inactive: dose: 12.5 mg/kg/injection, schedule: Q01DX009 (ip), vehicle: other 97 % of control | dose: 25.0 mg/kg/injection, schedule: Q01DX009 (ip), vehicle: other 91 % of control | dose: 50.0 mg/kg/injection, schedule: Q01DX009 (ip), vehicle: other 87 % of control | dose: 100.0 mg/kg/injection, schedule: Q01DX009 (ip), vehicle: other 94 % of control | dose: 200.0 mg/kg/injection, schedule: Q01DX009 (ip), vehicle: other 100 % of control

COc1cc(C(NC(=O)N2C(=O)C=CC2=O)NC(=O)N2C(=O)C=CC2=O)ccc1O
inactive: [9] 106 % of control | [10] 100 % of control | [11] 100 % of control

Cc1ccc(S(=O)(=O)C(C)(C)C(O)c2ccccc2)cc1 (configuration not stated)
inactive: [9] 100 % of control | [10] 99 % of control | [11] 92 % of control

CC1NC(=O)N(C2CCCCCCC2)C1=O (configuration not stated)
inactive: [6] 102 % of control | [7] 114 % of control | [8] 102 % of control

C=C(CSCCCCCCCCCCCC)C(=O)O
inactive: [9] 116 % of control | [10] 114 % of control | [11] 115 % of control

Cc1cccc(Cl)c1NC(=O)Nc1ccc(Cl)cc1C(=O)c1ccccc1
inactive: [3] 99 % of control | [4] 94 % of control | [5] 101 % of control

O=S(=O)(Cl)C(F)(F)C(F)(F)C(F)(F)C(F)(F)C(F)(F)C(F)(F)F
inactive: dose: 12.5 mg/kg/injection, schedule: Q01DX009 (ip), vehicle: saline with Tween-80 100 % of control | dose: 25.0 mg/kg/injection, schedule: Q01DX009 (ip), vehicle: saline with Tween-80 104 % of control | dose: 50.0 mg/kg/injection, schedule: Q01DX009 (ip), vehicle: saline with Tween-80 100 % of control and 93 % of control | dose: 100.0 mg/kg/injection, schedule: Q01DX009 (ip), vehicle: saline with Tween-80 112 % of control

CC(NNC(=S)N1CCN(c2ccccn2)CC1)c1cccc[n+]1[O-] (configuration not stated)
inactive: [9] 103 % of control | [10] 100 % of control | [11] 91 % of control

[NH-]c1ccccc1[S-].[NH-]c1ccccc1[S-].[Zn]
inactive: dose: 100.0 mg/kg/injection, schedule: Q04DX003 (ip), vehicle: saline 98 % of control | dose: 200.0 mg/kg/injection, schedule: Q04DX003 (ip), vehicle: saline 95 % of control | dose: 400.0 mg/kg/injection, schedule: Q04DX003 (ip), vehicle: saline 95 % of control

C=C[CH2][Sn]([c]1ccccc1)([c]1ccccc1)[c]1ccccc1
inactive: dose: 6.25 mg/kg/injection, schedule: Q04DX003 (ip), vehicle: saline with Tween-80 92 % of control | dose: 12.5 mg/kg/injection, schedule: Q04DX003 (ip), vehicle: saline with Tween-80 100 % of control | dose: 25.0 mg/kg/injection, schedule: Q04DX003 (ip), vehicle: saline with Tween-80 101 % of control

O=C1OC(=O)C2C3C=CC(O3)C12 (configuration not stated)
inactive: dose: 15.0 mg/kg/injection, schedule: Q01DX005 (ip), vehicle: saline 100 % of control | dose: 30.0 mg/kg/injection, schedule: Q01DX005 (ip), vehicle: saline 91 % of control | dose: 60.0 mg/kg/injection, schedule: Q01DX005 (ip), vehicle: saline 87 % of control and 89 % of control

COC(=O)C1(C)C(=O)NC(=O)CC1C (configuration not stated)
inactive: [6] 105 % of control | [7] 101 % of control | [8] 87 % of control

CC(C)C12OC1C1OC13C1(C)CCC4=C(COC4=O)C1CC1OC13C2=O (configuration not stated)
inactive: dose: 2.5 mg/kg/injection, schedule: Q01DX005 (ip), vehicle: saline + alcohol 110 % of control | dose: 5.0 mg/kg/injection, schedule: Q01DX005 (ip), vehicle: saline + alcohol 100 % of control | dose: 20.0 mg/kg/injection, schedule: Q01DX005 (ip), vehicle: saline + alcohol 114 % of control

Cc1c2cc[n+](C[n+]3ccc4c(C)c5[nH]c6ccccc6c5c(C)c4c3)cc2c(C)c2c1[nH]c1ccccc12
inactive: dose: 12.5 mg/kg/injection, schedule: Q04DX002 (ip), vehicle: DMSO 107 % of control | dose: 25.0 mg/kg/injection, schedule: Q04DX002 (ip), vehicle: DMSO 111 % of control | dose: 50.0 mg/kg/injection, schedule: Q04DX002 (ip), vehicle: DMSO 115 % of control | dose: 100.0 mg/kg/injection, schedule: Q04DX002 (ip), vehicle: DMSO 121 % of control

O=P(C(=S)NC1CC2C=CC1C2)(c1ccccc1)c1ccccc1 (configuration not stated)
inactive: dose: 25.0 mg/kg/injection, schedule: Q01DX009 (ip), vehicle: Klucel (hydroxypropylcellulose) (HPC) 95 % of control | [1] 100 % of control and 88 % of control | [2] 91 % of control | [12] 90 % of control

CCCCNC(=S)N/N=C1/CC(=O)N(c2ccccc2)C1c1ccccc1 (configuration not stated)
inactive: [3] 89 % of control | [4] 89 % of control

Cc1ccc(/C(CBr)=N/N=C(/CBr)c2ccc(C)cc2)cc1
inactive: [1] 100 % of control | [2] 92 % of control | [12] 98 % of control

OCCSc1nc2ccc(N=Cc3ccccc3O)cc2s1
inactive: [1] 100 % of control | [2] 100 % of control | [12] 90 % of control

CC(CC(C)C1CO1)C(=O)C(C)S(=O)(=O)c1ccccc1 (configuration not stated) (tested in a mixture with another compound)
inactive: [9] 104 % of control | [10] 88 % of control | [11] 102 % of control

COc1ccc(N2C(=O)CC(c3cc(C)ccc3OC)CC2=O)cc1
inactive: dose: 100.0 mg/kg/injection, schedule: Q01DX001 (ip), vehicle: saline 98 % of control | dose: 200.0 mg/kg/injection, schedule: Q01DX001 (ip), vehicle: saline 98 % of control | dose: 400.0 mg/kg/injection, schedule: Q01DX001 (ip), vehicle: saline 91 % of control

CCCCCCCCCCCCCCCCCC[N+]1([O-])CCCC1
inactive: dose: 50.0 mg/kg/injection, schedule: Q01DX009 (ip), vehicle: water 93 % of control

O=C(Cn1c(=O)cc(Nc2ccccc2)c2ccccc21)Nc1ccccc1
inactive: dose: 100.0 mg/kg/injection, schedule: Q01DX001 (ip), vehicle: saline with Tween-80 94 % of control | dose: 200.0 mg/kg/injection, schedule: Q01DX001 (ip), vehicle: saline with Tween-80 94 % of control | dose: 400.0 mg/kg/injection, schedule: Q01DX001 (ip), vehicle: saline with Tween-80 94 % of control

O=C(COc1ccc(Cl)cc1)NN1CCCCCC1
inactive: dose: 7.5 mg/kg/injection, schedule: Q01DX005 (ip), vehicle: Klucel (hydroxypropylcellulose) (HPC) 99 % of control | dose: 15.0 mg/kg/injection, schedule: Q01DX005 (ip), vehicle: Klucel (hydroxypropylcellulose) (HPC) 98 % of control
